Measured values taken from US9974785B2, “Aromatic heterocyclic derivatives and pharmaceutical applications thereof” (SUNSHINE LAKE PHARMA CO., LTD., priority 2014, dated 2018).

Tests used:
[1] = Stability in human liver microsomes; format: in vitro ADME; settings: for half-life at 1 μM / CLint scaled at 1 μM: liver microsomes, human liver microsome 0.5 mg/mL, 1 μM compound, 37° C., pH 7.4; for CLint scaled at 1 μM: read-out: Intrinsic clearance
Experimental: (§1) Example C: Evaluation of the Stability of the Compounds of the Invention in Rat and Human Liver Microsomes
(§2) The compound of the invention and rat liver microsome or human liver microsome were placed in 0.1 M potassium phosphate buffer (containing 1.0 mM EDTA, pH=7.4) at 37° C., and the mixture was incubated at 37° C. The concentrations of the compound at different incubation time points were determined, and the half-life of the compound was calculated by curve plotted based on the relative contents of the compound and the corresponding incubation times by using GraphPad Prism 5.01. Then the intrinsic clearance was calculated.
(§3) The peak area ratio of sample to internal standard was analyzed by the LC/MS/MS system. The content of the compound at 0 min was 100%, and the relative contents of the compound at different time points were calculated. The half-life of the compound was calculated by curve plotted based on the relative contents of the compound and the corresponding incubation times, and the intrinsic clearance was calculated.

[2] = biological target: human 5-HT6 receptor (Homo sapiens (Human), UniProt P50406); test: Radioligand binding assay, human 5-HT6 receptor expressed in CHO cell; settings: 2 nM [3H]LSD
Sequence of human 5-HT6 receptor (P50406 whole entry): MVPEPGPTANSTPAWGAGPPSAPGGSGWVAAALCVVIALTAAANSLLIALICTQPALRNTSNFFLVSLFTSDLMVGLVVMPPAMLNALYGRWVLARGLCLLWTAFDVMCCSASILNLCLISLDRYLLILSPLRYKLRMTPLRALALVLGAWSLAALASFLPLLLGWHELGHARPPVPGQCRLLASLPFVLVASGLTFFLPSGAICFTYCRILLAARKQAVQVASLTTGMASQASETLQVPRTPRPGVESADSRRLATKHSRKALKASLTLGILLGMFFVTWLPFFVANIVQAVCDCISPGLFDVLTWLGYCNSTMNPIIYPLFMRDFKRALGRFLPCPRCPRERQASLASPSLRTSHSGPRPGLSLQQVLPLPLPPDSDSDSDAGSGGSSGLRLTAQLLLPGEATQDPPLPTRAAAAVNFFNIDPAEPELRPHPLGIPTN
Experimental: Example A: The Binding Affinities of the Compounds of this Invention to Human 5-HT6 Receptor Expressed in CHO Cell were Evaluated by Radioligand Binding Assay as Follows
32 μg membrane proteins of CHO cell expressing human 5-HT6 receptor, 2 nM of radioactive marker [3H]LSD, a compound of the present invention having different test concentrations, 100 μM 5-HT (5-HT was used to eliminate nonspecific binding sites) and a buffer solution were mixed uniformly. Then the resulting mixture was incubated at 37° C. for 120 min, in which the buffer solution comprised 50 mM Tris-HCl (pH 7.4), 10 mM MgCl2, 0.5 mM EDTA, 10 μM pargyline and 20 mg/L protease inhibitor.
After incubation, the resulting mixture was filtered by a fiberglass filter (GF/B, Packard) in vacuo, and the filter membrane of the fiberglass filter was preimpregnated with 0.3% PEI before the filtering and washed with 50 mM of Tris-HCl for several times after the filtering. After the filter membrane was dried, and the radioactivity of filter membrane was determined by liquid scintillation counting by using a scintillometer (Topcount, Packard). The reference standard was 5-HT, and competitive inhibition curves were plotted based on several inhibition ratios and the corresponding compound concentrations. IC50 values were calculated by non-linear regression analysis using Hill equation curves, and the Ki values were calculated from IC50 by using the ChengPrusoff equation.

[3] = Stability in rat liver microsomes; format: in vitro ADME; settings: rat liver microsome 0.5 mg/mL, 1 μM compound, 37° C.; for half-life at 1 μM: pH 7.4; for CLint scaled at 1 μM: pH 7.4, read-out: Intrinsic clearance
Experimental: as §1, §2, §3

[4] = Pharmacokinetic evaluation after intravenous or gavage administration to dogs; format: in vivo, Beagle dogs; settings: for AUC(0-inf) / AUC(0-t) / Cmax / MRT inf / Tmax / clearance / half-life / Vd: beagle, dog, plasma; for Vd: read-out: Vss
Experimental: Example B: Pharmacokinetic Evaluation after Administering a Certain Amount of the Compounds of the Invention Intravenously or by Gavage to Dogs and Monkeys
In vivo pharmacokinetic assays in dogs and cynomolgus monkeys of the compounds disclosed herein were performed by the following steps.
Experiments were divided into two groups, one group was administered through intravenous drug delivery, and the other group was administered by gavage. The compounds disclosed herein were administered in form of a saline solution containing 5% DMSO, 5% Kolliphor HS 15, 2% (2% HCl) and 88% Saline, or the solution containing 10% DMSO, 10% Kolliphor HS 15 and 80% physiological saline. For intravenous administration, the animals were administered with a dose of 1 mg/kg, and 0.3 mL of vein blood was collected at the time points of 0.083, 0.25, 0.5, 1.0, 2.0, 4.0, 6.0, 8.0 and 24 h after drug administration (the time point of drug administration was set as 0 h), then each blood sample was processed to separate plasma by centrifugation at 3000 rpm or 4000 rpm for 10 minutes, and plasma was collected and stored at −20° C. or −70° C. until LC/MS/MS analysis described above. For gavage administration, the animals were administered with a dose of 2.5 mg/kg or 5 mg/kg, and 0.3 mL of vein blood was collected at the time points of 0.25, 0.5, 1.0, 2.0, 4.0, 6.0, 8.0 and 24 h after drug administration (the time point of drug administration was set as 0 h), then each blood sample was processed to separate plasma by centrifugation at 3000 rpm or 4000 rpm for 10 minutes, and plasma was collected and stored at −20° C. or −70° C. until LC/MS/MS analysis described above.
The above plasma was analyzed by the LC/MS/MS system.

[5] = intravenous drug delivery group, dose 1 mg/kg
[6] = po, gavage group, dose 2.5 mg/kg

| half-life at 1 μM [1] [h] | CLint scaled at 1 μM [1] [mL/min/kg] | Ki [2] [nM] | half-life at 1 μM [3] [h] | CLint scaled at 1 μM [3] [mL/min/kg] | AUC(0-inf) [4, 5] [ng·h/mL] | AUC(0-t) [4, 5] [ng·h/mL] | Cmax [4, 5] [ng/mL] | MRT inf [4, 5] [h] | Tmax [4, 5] [h] | clearance [4, 5] [mL/min/kg] | half-life [4, 5] [h] | Vd [4, 5] [L/kg] | AUC(0-inf) [4, 6] [ng·h/mL] | AUC(0-t) [4, 6] [ng·h/mL] | Cmax [4, 6] [ng/mL] | MRT inf [4, 6] [h] | Tmax [4, 6] [h] | half-life [4, 6] [h] | F ([4]; gavage group, dose 2.5 mg/kg) [%] | Structure (SMILES) | other results |
| --- | --- | --- | --- | --- | --- | --- | --- | --- | --- | --- | --- | --- | --- | --- | --- | --- | --- | --- | --- | --- | --- |
| 2.22 | 13.1 | 0.46 | 0.583 | 71 | 926 | 781 | 106 | 8.73 | 0.194 | 18.5 | 6.43 | 9.86 | 3160 | 2400 | 173 | 16.8 | 3.33 | 11.4 | 103.67 | O=S(=O)(c1ccccc1F)n1cc(C(F)F)c2c(N3CCNCC3)cccc21 [Example 2, 3-(difluoromethyl)-1-((2-fluorophenyl)sulfonyl)-4-(piperazin-1-yl)-1H-indole] | – |
| 2.2 | 13.2 | 0.43 | 0.501 | 82.6 | 2340 | 2660 | 293 | 8.77 | 8.06 | 7.13 | 6.26 | 3.77 | 17600 | 9250 | 975 | 17.9 | 4.67 | 14.7 | 139 | O=S(=O)(c1ccccc1Cl)n1cc(C(F)F)c2c(N3CCNCC3)cccc21 [Example 3, 1-((2-chlorophenyl)sulfonyl)-3-(difluoromethyl)-4-(piperazin-1-yl)-1H-indole] | – |
| 3.62 | 7.99 | 0.52 | 0.725 | 57.1 | 1190 | 1100 | 125 | 8.77 | 0.389 | 14 | 6.49 | 7.36 | – | – | – | – | – | – | – | O=S(=O)(c1cccc(F)c1)n1cc(C(F)F)c2c(N3CCNCC3)cccc21 [Example 5, 3-(difluoromethyl)-1-((3-fluorophenyl)sulfonyl)-4-(piperazin-1-yl)-1H-indole] | degradation in human liver microsomes in vitro ([1]; in 60 minutes): almost had no degradation; AUC(0-inf) ([4]; po, gavage group, dose 5 mg/kg): 8350 ng·h/mL; AUC(0-t) ([4]; po, gavage group, dose 5 mg/kg): 5680 ng·h/mL; Cmax ([4]; po, gavage group, dose 5 mg/kg): 347 ng/mL; MRT inf ([4]; po, gavage group, dose 5 mg/kg): 15 h; Tmax ([4]; po, gavage group, dose 5 mg/kg): 6 h; half-life ([4]; po, gavage group, dose 5 mg/kg): 10.1 h; F ([4]; gavage group, dose 5 mg/kg): 103.21% |
